Numbered stars: 1 amine (or outer) side, 2 acyl side, 3 side chain; on linkers, the order of the positions; unused ones are H or OH. Bridge positions count the residues as written; N and C are the ends. Square brackets hold non-standard residues; d marks the D form. Peptide text beside a SMILES is read from it. Nle(6-ylidene) = O=C([C@H](CCCC=[*:3])N[*:1])[*:2]
Columns and labels:
[1] = system: carboxy peptidase; experiment: Decomposition by carboxy peptidase (resistance to peptidase); format: in vitro ADME; conditions: carboxy peptidase (isolated enzyme, SIGMA); enzyme solution 1 U/ml in PBS, peptide 0.2 mg/ml, 37° C., HPLC; time at which half of the peptide was decomposed; read-out: half period by carboxy peptidase (t1/2) (converted)
Procedure: (§1) Resistance to a peptidase of a peptide of the present invention was investigated using a carboxy peptidase and chymotrypsin. Resistance to a peptidase was measured as described below.
(Decomposition by Carboxy Peptidase)
A carboxy peptidase purchased from SIGMA was treated with PBS to prepare an enzyme solution of 1 U/ml, which was then kept warm at 37° C. in a water bath. Then, a peptide solution having a concentration adjusted to 5 mg/ml with DMSO: pure water=1:1 mixed solvent was treated with PBS(−) to obtain a concentration of 1 mg/ml, and the enzyme solution and the peptide solution were mixed at 4:1 so as to give a peptide final concentration of 0.2 mg/ml. Thereafter, these were reacted quickly at 37° C. With time, the reaction solution was sampled each in an amount of 0.1 ml, and a reaction stopping solution (25% TFA in acetonitrile, 20 μL) was added to stop the reaction. Samples were analyzed by HPLC, and decomposition of a peptide by the peptidase was measured. […] Time at which half of the peptide added was decomposed was measured.

[2] = biological target: T1, chymotrypsin (Bos taurus, UniProt P00766); experiment: Decomposition by chymotrypsin (resistance to peptidase); format: in vitro ADME; conditions: chymotrypsin (isolated enzyme, SIGMA), pH 8; enzyme solution 4 U/ml in 0.1M Tris-HCl (pH8.0), peptide 0.2 mg/ml, 37° C., HPLC; read-out: half period by chymotrypsin (t1/2)
T1 construct: purchased SIGMA
Procedure: as §1
(Decomposition by Chymotrypsin)
Chymotrypsin purchased from SIGMA was treated with 0.1M Tris-HCl (pH8.0) to prepare an enzyme solution of 4 U/ml, which was then kept warm at 37° C. in a water bath. Then, a peptide solution treated with DMSO: pure water=1:1 to obtain a concentration of 5 mg/ml was treated with 0.1M Tris-HCl (pH8.0) to give a concentration of 1 mg/ml, and the enzyme solution and the peptide solution were mixed at 4:1 so as to give a peptide final concentration of 0.2 mg/ml. Thereafter, these were reacted quickly at 37° C. With time, the reaction solution was sampled each in an amount of 0.1 ml, and a reaction stopping solution (25% TFA in acetonitrile, 20 μL) was added to stop the reaction. Samples were analyzed by HPLC, and decomposition of a peptide by chymotrypsin was measured. Sampling was conducted at 0, 0.5 minutes, 1 minute and 2 minutes, and when decomposition of 50% or more was not obtained at 2 minutes, sampling was conducted further at 0.5 hours, 1 hour, 3 hours, and time at which half of the peptide added was decomposed was measured.

half-life at 0.2 mg/ml [1] [h] | half-life at 0.2 mg/ml [2] [min] | SMILES
0.0495 | 0.97 | CC(=O)N1CCCC[C@@H](C(=O)N[C@@H](Cc2ccc(O)cc2)C(=O)O)NC(=O)[C@H](CC(C)C)NC(=O)[C@H](Cc2ccc(O)cc2)NC(=O)[C@H](CCC(N)=O)NC(=O)[C@H](CO)NC(=O)[C@H](Cc2c[nH]c3ccccc23)NC(=O)CN(C(=O)[C@@H](N)Cc2ccc(O)cc2)CCCC1 [Bdev-19]
79 | 2.07 | CC(C)C[C@@H]1NC(=O)[C@H](Cc2ccc(O)cc2)NC(=O)[C@H](CCC(N)=O)NC(=O)[C@H](CO)NC(=O)[C@H](Cc2c[nH]c3ccccc23)NC(=O)[C@@H](NC(=O)[C@@H](N)Cc2ccc(O)cc2)CCC/C=C\CCC[C@@H](C(=O)N[C@@H](Cc2ccc(O)cc2)C(=O)O)NC1=O [Comp. 3] (H-Y[Nle(6-ylidene)]WSQYL[Nle(6-ylidene)]Y-OH; staple (Z) 2-8)

Source: US10633418B2, “Cross-linked peptides containing non-peptide cross-linked structure, method for synthesizing cross-linked peptides, and novel organic compound used in method” (JITSUBO Co., Ltd., priority 2011, dated 2020)
